In the NIST ThermoML archive (doi:10.1016/j.jct.2010.12.020):
Several values for one entry are separate records, joined by “and”; a condition that tells them apart may be missing. Identical values can stand only once. Numbers after ± are expanded uncertainties.

Test: activity coefficient (dimensionless); of the first substance listed, at infinite dilution; xn = mol fraction of the nth substance listed
Settings: 101 kPa, Liquid, Chromatography, x1 = 0

| activity coefficient (303.15 K) | activity coefficient (313.15 K) | activity coefficient (323.15 K) | SMILES |
| --- | --- | --- | --- |
| 1.34 and 1.32 | 1.28 and 1.26 | 1.23 and 1.19 | C1CCCCC1 [cyclohexane] + CCCCCCCC[N+](C)(CCCCCCCC)CCCCCCCC.O=C(O)c1ccccc1[S-] |
| 1.57 ± 0.19 | 1.5 and 1.45 | 1.44 and 1.37 | C1CCCCCCC1 [cyclooctane] + CCCCCCCC[N+](C)(CCCCCCCC)CCCCCCCC.O=C(O)c1ccccc1[S-] |
| 1.1 and 1.08 | 1.07 and 1.05 | 1.04 and 1 | C1CCCC1 [cyclopentane] + CCCCCCCC[N+](C)(CCCCCCCC)CCCCCCCC.O=C(O)c1ccccc1[S-] |
| 2.07 ± 0.26 | 1.98 and 1.96 | 1.92 and 1.87 | CCCCCC [hexane] + CCCCCCCC[N+](C)(CCCCCCCC)CCCCCCCC.O=C(O)c1ccccc1[S-] |
| 3.21 and 3.11 | 3.07 and 3.03 | 2.98 and 2.88 | CCCCCCCCC [nonane] + CCCCCCCC[N+](C)(CCCCCCCC)CCCCCCCC.O=C(O)c1ccccc1[S-] |
| 2.09 and 2.06 | 2.06 and 2.02 | 2 and 1.93 | C=CCCCCCC [oct-1-ene] + CCCCCCCC[N+](C)(CCCCCCCC)CCCCCCCC.O=C(O)c1ccccc1[S-] |
| 1.81 ± 0.22 | 1.75 ± 0.22 | 1.7 and 1.65 | CCCCC [pentane] + CCCCCCCC[N+](C)(CCCCCCCC)CCCCCCCC.O=C(O)c1ccccc1[S-] |

Second part, the molecule before the results:

| SMILES | activity coefficient (303.15 K) | activity coefficient (313.15 K) | activity coefficient (323.15 K) |
| --- | --- | --- | --- |
| C#CCCCC [1-hexyne] + CCCCCCCC[N+](C)(CCCCCCCC)CCCCCCCC.O=C(O)c1ccccc1[S-] | 0.7 and 0.69 | 0.72 ± 0.09 | 0.75 ± 0.09 |
| C#CCCCCCC [1-octyne] + CCCCCCCC[N+](C)(CCCCCCCC)CCCCCCCC.O=C(O)c1ccccc1[S-] | 0.88 and 0.84 | 0.92 and 0.9 | 0.94 ± 0.11 |
| C=CCCC [1-pentene] + CCCCCCCC[N+](C)(CCCCCCCC)CCCCCCCC.O=C(O)c1ccccc1[S-] | 1.39 and 1.4 | 1.36 ± 0.17 | 1.33 and 1.28 |
| C#CCCC [1-pentyne] + CCCCCCCC[N+](C)(CCCCCCCC)CCCCCCCC.O=C(O)c1ccccc1[S-] | 0.63 ± 0.08 | 0.65 ± 0.08 | 0.67 ± 0.08 |
| CC(C)=O [acetone] + CCCCCCCC[N+](C)(CCCCCCCC)CCCCCCCC.O=C(O)c1ccccc1[S-] | 0.69 and 0.65 | 0.66 and 0.63 | 0.64 and 0.61 |
| c1ccccc1 [benzene] + CCCCCCCC[N+](C)(CCCCCCCC)CCCCCCCC.O=C(O)c1ccccc1[S-] | 0.51 and 0.48 | 0.5 and 0.48 | 0.5 and 0.47 |
| CCC(C)=O [butanone] + CCCCCCCC[N+](C)(CCCCCCCC)CCCCCCCC.O=C(O)c1ccccc1[S-] | 0.66 and 0.62 | 0.64 and 0.61 | 0.62 and 0.59 |
| C1CCCCCC1 [cycloheptane] + CCCCCCCC[N+](C)(CCCCCCCC)CCCCCCCC.O=C(O)c1ccccc1[S-] | 1.42 and 1.4 | 1.36 and 1.32 | 1.31 and 1.25 |
| CCCCCCC [heptane] + CCCCCCCC[N+](C)(CCCCCCCC)CCCCCCCC.O=C(O)c1ccccc1[S-] | 2.37 and 2.28 | 2.29 and 2.22 | 2.21 and 2.15 |
| C=CCCCC [hex-1-ene] + CCCCCCCC[N+](C)(CCCCCCCC)CCCCCCCC.O=C(O)c1ccccc1[S-] | 1.57 and 1.55 | 1.53 and 1.51 | 1.51 and 1.46 |
| CCCCCCCC [octane] + CCCCCCCC[N+](C)(CCCCCCCC)CCCCCCCC.O=C(O)c1ccccc1[S-] | 2.77 and 2.72 | 2.68 and 2.61 | 2.55 and 2.47 |
| Cc1ccccc1 [toluene] + CCCCCCCC[N+](C)(CCCCCCCC)CCCCCCCC.O=C(O)c1ccccc1[S-] | 0.62 and 0.59 | 0.62 and 0.59 | 0.62 and 0.58 |
